Test results as given in article PMC9503112, “Synthesis, Molecular Docking, In Vitro and In Vivo Studies of Novel Dimorpholinoquinazoline-Based Potential Inhibitors of PI3K/Akt/mTOR Pathway” (International Journal of Molecular Sciences, 2022).
Entries after “also recorded” stand apart in the source; their conditions may differ.

Assays:
[1] = test system: PARP1 in MCF7 cells; assay: Immunoblotting of PARP1 cleavage; assay type: cell-based, human
Method: MCF7 cells were seeded onto 100 mm dishes (Corning) and cultivated for 24 h. Compound 7c was added at different concentrations while the reference compound wortmannin (Selleckchem, Houston, TX, USA) was used at 500 nM. The cells were harvested after 72 h of growth with the compounds. To prepare cell extracts, MCF7 cells were twice washed in phosphate buffer and incubated for 10 min on ice in the modified lysis buffer containing 50 mM Tris-HCl, pH 7.5, 0.5% Igepal CA-630, 150 mM NaCl, 1 mM EDTA, 1 mM DTT, 1 mM PMSF, 0.1 mM sodium orthovanadate and aprotinin, leupeptin, pepstatin (1 µg/mL each). The protein content was determined by the Bradford method. Cell lysates were separated in 10% SDS-PAGE under reducing conditions, transferred to a nitrocellulose membrane (GE HealthCare, Chicago, IL, USA), and processed according to a standard protocol. To prevent nonspecific absorption, the membranes were treated with 5% nonfat milk solution in TBS buffer (20 mM Tris, 500 mM NaCl, pH 7.5) with 0.1% Tween-20 and then incubated with primary antibodies (Cell Signaling Technology, Danvers, MA, USA) overnight at 4 °C. […] Signals were detected using the ECL reagent using the ImageQuant LAS4000 system (GE HealthCare, Chicago, IL, USA).
The signals of phospho-proteins to total ones were calculated using the ImageJ program from inverted images of the bands.

[2] = test system: keratinocytes HaCaT; assay: Antiproliferative activity, MTT assay; assay type: cell-based; conditions: Homo sapiens, 72 h, standard deviations within 50%
Method: (§1) Human breast cancer MCF7, MDA-MB-231, SkBr-3 (purchased from the ATCC collection), human keratinocytes HaCaT, murine fibroblasts L929 and macrophages J774 cells (Collection of Shemyakin-Ovchinnikov Institute of Bioorganic Chemistry RAS) were cultured in standard DMEM or RPMI-1640 medium (ThermoScientific, Waltham, MA, USA) supplemented with 10% fetal bovine serum (FBS, Cytiva, Marlborough, MA, USA) at 37 °C, 5 % CO2 and 80–85% humidity (NuAir CO2 incubator). The cell growth was evaluated by MTT (3-[4,5-dimethylthiazol-2-yl]-2,5-diphenyltetrazolium bromide) test. Cells were seeded at a density of 5 × 10^3 cells per well in 96-well flat-bottomed plates (TPP). The compounds were dissolved in DMSO (AppliChem) to 10 mM before the experiments, and then the resulting solutions were diluted by the medium to the required concentrations. Solutions of the tested compounds with different concentrations in 100 μL of the medium were added and the cells were grown for 72 h. MTT (10 μL/well, 5 mg/mL) was added for the final 3 h. The formazan purple crystals were dissolved in DMSO (100 μL per well). The absorbance of solutions was measured at 540 nm with a MultiScan reader (ThermoFisher). Results were analyzed by Excel package (Microsoft). The inhibition of proliferation (inhibitory index) was calculated as [1–(ODexperiment/ODcontrol)], where OD was MTT optical density. IC50 (Table 1) was determined as the concentration giving 50% of inhibition in the comparison with it […].

[3] = test system: MCF7; assay: Antiproliferative activity, MTT assay; assay type: cell-based; conditions: Homo sapiens, 72 h, standard deviations within 50%
Method: as §1

[4] = test system: MCF7 cells; assay: MCF7 proliferation with 7c in combination with metformin; assay type: cell-based, human; conditions: 7c combined with metformin; printed as up to 4 nM
Excerpt: Hyperglycemia is one of the most frequent side effects of pan- and isoform-selective PI3K inhibitors. Drug-induced inhibition of PI3K reduces glucose uptake that stimulates insulin secretion. Long-term therapy with PI3K inhibitors can cause insulin resistance. […] We have previously analyzed the antiproliferative potency of metformin (MF) against MCF7 breast cancer cells. Metformin induced a partial restoration of the cancer cell sensitivity to hormonal and target drugs. MF caused 50% suppression of MCF7 cell growth at a concentration of 5.8 mM [54]. Based on this fact, MF at the concentrations that had no significant antiproliferative effect was used in the combination with the lead compound. […]
Human breast cancer MCF7, MDA-MB-231, SkBr-3 (purchased from the ATCC collection), human keratinocytes HaCaT, murine fibroblasts L929 and macrophages J774 cells (Collection of Shemyakin-Ovchinnikov Institute of Bioorganic Chemistry RAS) were cultured in standard DMEM or RPMI-1640 medium (ThermoScientific, Waltham, MA, USA) supplemented with 10% fetal bovine serum (FBS, Cytiva, Marlborough, MA, USA) at 37 °C, 5 % CO2 and 80–85% humidity (NuAir CO2 incubator). The cell growth was evaluated by MTT (3-[4,5-dimethylthiazol-2-yl]-2,5-diphenyltetrazolium bromide) test. […] The absorbance of solutions was measured at 540 nm with a MultiScan reader (ThermoFisher). […]

[5] = test system: SkBr-3 cells; assay: Cell cycle analysis (PI-stained DNA, flow cytometry); assay type: cell-based, human
Method: The cell cycle was analyzed using PI-stained DNA. Cells from the compounds 7 treated cultures were collected at 24, 48, and 72 h, trypsinized, washed in ice-cold PBS, fixed by the addition of 70% ethanol and left for 2 h at −20 °C. Thereafter, the cells were washed twice in PBS, stained with 50 μg/mL of propidium iodide (Sigma, Merck KGaA, Darmstadt, Germany) in PBS, treated with 10 µg/mL of RNAse and analyzed by flow cytometry using FACScan device (BD, USA). A total of 2000 events were collected. The results were analyzed using FlowJo 10 software (BD, Franklin Lakes, NJ, USA).

[6] = Solubility; assay type: physicochemical
[7] = test system: colorectal murine tumor Colon26; assay: In vivo tumor growth; set-up: species or system BALB/c mice
Method: Murine colorectal CT26 (ATCC, CRL-2639) adenocarcinoma tumor cell line was used in the study. Cells were grown in RPMI-1640 supplemented with 10% fetal calf serum (FCS) and pen-strep-glut (all from PanEco, Moscow, Russian Federation). Cells were passaged by trypsinization using Trypsin/EDTA solution (PanEco, Moscow, Russian Federation) twice a week. Cell authentication was not performed by the authors.
Six- to eight-week-old female BALB/c mice were obtained from the Pushchino branch of Shemyakin-Ovchinnikov Institute of Bioorganic Chemistry RAS. All studies were conducted in an AAALAC accredited facility in compliance with the PHS Guidelines for the Care and Use of Animals in Research, protocol #325 from 24.05.2021
Colon-26 cells (10^5) were subcutaneously (s.c.) injected into the depilated flanks of 6-week-old female BALB/c mice. Mice (n = 20) were divided in three groups: control mice (n = 8) were injected with vehicle only; mice from group 1 (n = 6) and 2 (n = 6) were treated with 50 µL of 1 mM 7c injected s.c. near the tumors. […] The perpendicular diameter of each tumor was measured twice a week, and tumor volume was calculated using the following formula: tumor volume (mm^3) = a × b^2 × 0.5, where a represents the longest diameter, b represents the shortest diameter, and 0.5 is a constant used to calculate the volume of an ellipsoid. […]

IC50 [3]: 0.2 µM
Solubility [6]: soluble only in DMSO
SMILES: O=C(NCCc1cccnc1)Nc1ccc(-c2ccc3c(N4CCOCC4)nc(N4CCOCC4)nc3c2)cc1 [Compound 7c, 1-(4-(2,4-Dimorpholinoquinazolin-7-yl)phenyl)-3-(2-(pyridin-3-yl)ethyl)urea]
Concentration triggering PARP-1 cleavage [1]: 62 to 125 nM
IC50 [2]: 6 µM
Antiproliferative activity in combination with metformin [4]: up to 4 nM
Concentration above which all cells died [5]: higher than 10 μM
Concentration below which no changes in the cell cycle were found [5]: below 1 μM
Effect on tumor growth, late treatment of large tumors (group 2) ([7]; 50 µL of 1 mM 7c s.c. around tumor, from 400–500 mm^3, three injections): less evident but still significant; also recorded: tumor destruction
Effect on tumor growth, early treatment (group 1) ([7]; 50 µL of 1 mM 7c s.c. near tumor, once in 3 days, from 2–8 mm^3, post three injections, p < 0.05): significant
